{"source": "PubChem BioAssay (NCI)", "assay_in_all_cases": "NCI-60 cell line screen, 48 h", "key": {"[1]": {"tested_on": "A549 NSCLC"}, "[2]": {"tested_on": "BT-549 breast"}, "[3]": {"tested_on": "CAKI-1 renal"}, "[4]": {"tested_on": "COLO 205 colon"}, "[5]": {"tested_on": "EKVX NSCLC"}, "[6]": {"tested_on": "HCT-116 colon"}, "[7]": {"tested_on": "HCT-15 colon"}, "[8]": {"tested_on": "HOP-62 NSCLC"}, "[9]": {"tested_on": "HT29 colon"}, "[10]": {"tested_on": "IGROV1 ovarian"}, "[11]": {"tested_on": "K-562 leukemia"}, "[12]": {"tested_on": "KM12 colon"}, "[13]": {"tested_on": "M14 melanoma"}, "[14]": {"tested_on": "MALME-3M melanoma"}, "[15]": {"tested_on": "MCF7 breast"}, "[16]": {"tested_on": "MDA-MB-435"}, "[17]": {"tested_on": "MDA-N"}, "[18]": {"tested_on": "NCI-H226 lung"}, "[19]": {"tested_on": "NCI-H23 lung"}, "[20]": {"tested_on": "NCI-H522 lung"}, "[21]": {"tested_on": "NCI/ADR-RES ovarian"}, "[22]": {"tested_on": "OVCAR-3 ovarian"}, "[23]": {"tested_on": "OVCAR-4 ovarian"}, "[24]": {"tested_on": "OVCAR-5 ovarian"}, "[25]": {"tested_on": "PC-3 prostate"}, "[26]": {"tested_on": "RPMI-8226 leukemia"}, "[27]": {"tested_on": "RXF 393 renal"}, "[28]": {"tested_on": "SF-295 CNS"}, "[29]": {"tested_on": "SF-539 CNS"}, "[30]": {"tested_on": "SK-MEL-2 melanoma"}, "[31]": {"tested_on": "SK-MEL-28 melanoma"}, "[32]": {"tested_on": "SK-MEL-5 melanoma"}, "[33]": {"tested_on": "SK-OV-3 ovarian"}, "[34]": {"tested_on": "SN12C renal"}, "[35]": {"tested_on": "SNB-19 CNS"}, "[36]": {"tested_on": "SR leukemia"}, "[37]": {"tested_on": "SW-620 colon"}, "[38]": {"tested_on": "UACC-257 melanoma"}, "[39]": {"tested_on": "786-0 renal"}, "[40]": {"tested_on": "A498 renal"}, "[41]": {"tested_on": "ACHN renal"}, "[42]": {"tested_on": "CCRF-CEM leukemia"}, "[43]": {"tested_on": "DU-145 prostate"}, "[44]": {"tested_on": "HCC-2998 colon"}, "[45]": {"tested_on": "HL-60(TB) leukemia"}, "[46]": {"tested_on": "HOP-92 NSCLC"}, "[47]": {"tested_on": "HS 578T breast"}, "[48]": {"tested_on": "LOX IMVI melanoma"}, "[49]": {"tested_on": "MDA-MB-231 breast"}, "[50]": {"tested_on": "MOLT-4 leukemia"}, "[51]": {"tested_on": "NCI-H460 lung"}, "[52]": {"tested_on": "OVCAR-8 ovarian"}, "[53]": {"tested_on": "SF-268 CNS"}, "[54]": {"tested_on": "SNB-75 CNS"}, "[55]": {"tested_on": "T-47D breast"}, "[56]": {"tested_on": "TK-10 renal"}, "[57]": {"tested_on": "U251 CNS"}, "[58]": {"tested_on": "UACC-62 melanoma"}, "[59]": {"tested_on": "UO-31 renal"}}, "note": "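These data come from cells grown in 96-well plates and exposed to compound for 48 hours at five concentrations. Definition used: TGI = concentration required for complete inhibition of growth.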"}
{"compound": "COc1ccc2c3c(c4cc(OC)c(OC)cc4c2c1)CN1CCC[C@H]1[C@@H]3O", "values": [{"measurement": "TGI", "setting": "[1]", "result": "> 55.4", "unit": "µM"}, {"measurement": "TGI", "setting": "[2]", "result": 6.76, "unit": "µM"}, {"measurement": "TGI", "setting": "[3]", "result": 0.234, "unit": "µM"}, {"measurement": "TGI", "setting": "[4]", "result": 0.304, "unit": "µM"}, {"measurement": "TGI", "setting": "[5]", "result": 0.578, "unit": "µM"}, {"measurement": "TGI", "setting": "[6]", "result": 1.22, "unit": "µM"}, {"measurement": "TGI", "setting": "[7]", "result": 1.19, "unit": "µM"}, {"measurement": "TGI", "setting": "[8]", "result": 2.81, "unit": "µM"}, {"measurement": "TGI", "setting": "[9]", "result": 0.373, "unit": "µM"}, {"measurement": "TGI", "setting": "[10]", "result": 0.326, "unit": "µM"}, {"measurement": "TGI", "setting": "[11]", "result": 0.653, "unit": "µM"}, {"measurement": "TGI", "setting": "[12]", "result": 0.341, "unit": "µM"}, {"measurement": "TGI", "setting": "[13]", "result": 1.3, "unit": "µM"}, {"measurement": "TGI", "setting": "[14]", "result": 0.829, "unit": "µM"}, {"measurement": "TGI", "setting": "[15]", "result": "> 100", "unit": "µM"}, {"measurement": "TGI", "setting": "[16]", "result": 4.21, "unit": "µM"}, {"measurement": "TGI", "setting": "[17]", "result": 0.706, "unit": "µM"}, {"measurement": "TGI", "setting": "[18]", "result": 11.5, "unit": "µM"}, {"measurement": "TGI", "setting": "[19]", "result": 0.169, "unit": "µM"}, {"measurement": "TGI", "setting": "[20]", "result": 2.85, "unit": "µM"}, {"measurement": "TGI", "setting": "[21]", "result": 26.1, "unit": "µM"}, {"measurement": "TGI", "setting": "[22]", "result": "> 21.1", "unit": "µM"}, {"measurement": "TGI", "setting": "[23]", "result": 31.2, "unit": "µM"}, {"measurement": "TGI", "setting": "[24]", "result": "> 28.3", "unit": "µM"}, {"measurement": "TGI", "setting": "[25]", "result": "> 41.9", "unit": "µM"}, {"measurement": "TGI", "setting": "[26]", "result": 5.17, "unit": "µM"}, {"measurement": "TGI", "setting": "[27]", "result": 7.64, "unit": "µM"}, {"measurement": "TGI", "setting": "[28]", "result": 4.03, "unit": "µM"}, {"measurement": "TGI", "setting": "[29]", "result": 0.829, "unit": "µM"}, {"measurement": "TGI", "setting": "[30]", "result": 0.591, "unit": "µM"}, {"measurement": "TGI", "setting": "[31]", "result": 0.667, "unit": "µM"}, {"measurement": "TGI", "setting": "[32]", "result": 0.398, "unit": "µM"}, {"measurement": "TGI", "setting": "[33]", "result": "> 100", "unit": "µM"}, {"measurement": "TGI", "setting": "[34]", "result": 0.237, "unit": "µM"}, {"measurement": "TGI", "setting": "[35]", "result": 2.13, "unit": "µM"}, {"measurement": "TGI", "setting": "[36]", "result": 4.87, "unit": "µM"}, {"measurement": "TGI", "setting": "[37]", "result": "> 39.8", "unit": "µM"}, {"measurement": "TGI", "setting": "[38]", "result": 0.544, "unit": "µM"}]}
{"compound": "Fc1nc(Sc2ncnc3nc[nH]c23)nc(-c2c3ccccc3c3sc4ccccc4n23)n1", "values": [{"measurement": "TGI", "setting": "[39]", "result": "> 100", "unit": "µM"}, {"measurement": "TGI", "setting": "[40]", "result": "> 100", "unit": "µM"}, {"measurement": "TGI", "setting": "[1]", "result": "> 100", "unit": "µM"}, {"measurement": "TGI", "setting": "[41]", "result": "> 100", "unit": "µM"}, {"measurement": "TGI", "setting": "[2]", "result": "> 100", "unit": "µM"}, {"measurement": "TGI", "setting": "[3]", "result": "> 100", "unit": "µM"}, {"measurement": "TGI", "setting": "[42]", "result": "> 100", "unit": "µM"}, {"measurement": "TGI", "setting": "[4]", "result": "> 100", "unit": "µM"}, {"measurement": "TGI", "setting": "[43]", "result": "> 100", "unit": "µM"}, {"measurement": "TGI", "setting": "[5]", "result": "> 100", "unit": "µM"}, {"measurement": "TGI", "setting": "[44]", "result": "> 100", "unit": "µM"}, {"measurement": "TGI", "setting": "[6]", "result": "> 100", "unit": "µM"}, {"measurement": "TGI", "setting": "[7]", "result": "> 100", "unit": "µM"}, {"measurement": "TGI", "setting": "[45]", "result": "> 100", "unit": "µM"}, {"measurement": "TGI", "setting": "[8]", "result": "> 100", "unit": "µM"}, {"measurement": "TGI", "setting": "[46]", "result": "> 100", "unit": "µM"}, {"measurement": "TGI", "setting": "[47]", "result": "> 100", "unit": "µM"}, {"measurement": "TGI", "setting": "[9]", "result": "> 100", "unit": "µM"}, {"measurement": "TGI", "setting": "[10]", "result": "> 100", "unit": "µM"}, {"measurement": "TGI", "setting": "[11]", "result": "> 100", "unit": "µM"}, {"measurement": "TGI", "setting": "[12]", "result": "> 100", "unit": "µM"}, {"measurement": "TGI", "setting": "[48]", "result": "> 100", "unit": "µM"}, {"measurement": "TGI", "setting": "[13]", "result": "> 100", "unit": "µM"}, {"measurement": "TGI", "setting": "[14]", "result": "> 100", "unit": "µM"}, {"measurement": "TGI", "setting": "[15]", "result": "> 100", "unit": "µM"}, {"measurement": "TGI", "setting": "[49]", "result": "> 100", "unit": "µM"}, {"measurement": "TGI", "setting": "[16]", "result": "> 100", "unit": "µM"}, {"measurement": "TGI", "setting": "[17]", "result": "> 100", "unit": "µM"}, {"measurement": "TGI", "setting": "[50]", "result": "> 100", "unit": "µM"}, {"measurement": "TGI", "setting": "[18]", "result": "> 100", "unit": "µM"}, {"measurement": "TGI", "setting": "[19]", "result": "> 100", "unit": "µM"}, {"measurement": "TGI", "setting": "[51]", "result": "> 100", "unit": "µM"}, {"measurement": "TGI", "setting": "[20]", "result": "> 100", "unit": "µM"}, {"measurement": "TGI", "setting": "[21]", "result": "> 100", "unit": "µM"}, {"measurement": "TGI", "setting": "[22]", "result": "> 100", "unit": "µM"}, {"measurement": "TGI", "setting": "[23]", "result": "> 100", "unit": "µM"}, {"measurement": "TGI", "setting": "[24]", "result": "> 100", "unit": "µM"}, {"measurement": "TGI", "setting": "[52]", "result": "> 100", "unit": "µM"}, {"measurement": "TGI", "setting": "[25]", "result": "> 100", "unit": "µM"}, {"measurement": "TGI", "setting": "[26]", "result": "> 100", "unit": "µM"}, {"measurement": "TGI", "setting": "[27]", "result": "> 100", "unit": "µM"}, {"measurement": "TGI", "setting": "[53]", "result": "> 100", "unit": "µM"}, {"measurement": "TGI", "setting": "[28]", "result": "> 100", "unit": "µM"}, {"measurement": "TGI", "setting": "[29]", "result": "> 100", "unit": "µM"}, {"measurement": "TGI", "setting": "[30]", "result": "> 100", "unit": "µM"}, {"measurement": "TGI", "setting": "[31]", "result": "> 100", "unit": "µM"}, {"measurement": "TGI", "setting": "[32]", "result": "> 100", "unit": "µM"}, {"measurement": "TGI", "setting": "[33]", "result": "> 100", "unit": "µM"}, {"measurement": "TGI", "setting": "[34]", "result": "> 100", "unit": "µM"}, {"measurement": "TGI", "setting": "[35]", "result": "> 100", "unit": "µM"}, {"measurement": "TGI", "setting": "[54]", "result": "> 100", "unit": "µM"}, {"measurement": "TGI", "setting": "[37]", "result": "> 100", "unit": "µM"}, {"measurement": "TGI", "setting": "[55]", "result": "> 100", "unit": "µM"}, {"measurement": "TGI", "setting": "[56]", "result": "> 100", "unit": "µM"}, {"measurement": "TGI", "setting": "[57]", "result": "> 100", "unit": "µM"}, {"measurement": "TGI", "setting": "[38]", "result": "> 100", "unit": "µM"}, {"measurement": "TGI", "setting": "[58]", "result": "> 100", "unit": "µM"}, {"measurement": "TGI", "setting": "[59]", "result": "> 100", "unit": "µM"}]}
